Assay results: ChEMBL document CHEMBL1649580, “Mosaic penicillin-binding protein 2 in Neisseria gonorrhoeae isolates collected in 2008 in San Francisco, California” (2009)
Converted amounts (≈) assume the structure as drawn.

Assays:
Format in all cases: functional
[1] = test system: Neisseria gonorrhoeae; assay: Antibacterial activity against Neisseria gonorrhoeae isolate SM3 expressing SF-A mosaic penA allele by agar dilution method
[2] = test system: Neisseria gonorrhoeae; assay: Antibacterial activity against Neisseria gonorrhoeae isolate SM1 expressing SF-A mosaic penA allele by agar dilution method
[3] = test system: Neisseria gonorrhoeae; assay: Antibacterial activity against Neisseria gonorrhoeae isolate SM2 expressing SF-A mosaic penA allele by agar dilution method
[4] = test system: Neisseria gonorrhoeae; assay: Antibacterial activity against Neisseria gonorrhoeae isolate SM5 expressing SF-B mosaic penA allele by agar dilution method
[5] = test system: Neisseria gonorrhoeae; assay: Antibacterial activity against Neisseria gonorrhoeae isolate SW2 expressing nonmosaic penA allele by agar dilution method
[6] = test system: Neisseria gonorrhoeae; assay: Antibacterial activity against Neisseria gonorrhoeae isolate SM4 expressing SF-B mosaic penA allele by agar dilution method
[7] = test system: Neisseria gonorrhoeae; assay: Antibacterial activity against Neisseria gonorrhoeae isolate SW1 expressing nonmosaic penA allele by agar dilution method

Compound | MIC [1] | MIC [2] | MIC [3] | MIC [4] | MIC [5] | MIC [6] | MIC [7]
CO/N=C(\C(=O)N[C@@H]1C(=O)N2C(C(=O)O)=C(CSc3nc(=O)c(O)nn3C)CS[C@H]12)c1csc(N)n1 [CEFTRIAXONE] | 0.03 µg/mL (≈ 0.0541 µM) | 0.06 µg/mL (≈ 0.108 µM) | 0.06 µg/mL (≈ 0.108 µM) | ≤ 0.008 µg/mL | ≤ 0.008 µg/mL | ≤ 0.008 µg/mL | ≤ 0.008 µg/mL
C=CC1=C(C(=O)O)N2C(=O)[C@@H](NC(=O)/C(=N\OCC(=O)O)c3csc(N)n3)[C@H]2SC1 [CEFIXIME] | 0.25 µg/mL (≈ 0.551 µM) | 0.25 µg/mL (≈ 0.551 µM) | 0.125 µg/mL (≈ 0.276 µM) | 0.015 µg/mL (≈ 0.0331 µM) | 0.015 µg/mL (≈ 0.0331 µM) | ≤ 0.008 µg/mL | ≤ 0.008 µg/mL
COCC1=C(C(=O)O)N2C(=O)[C@@H](NC(=O)/C(=N\OC)c3csc(N)n3)[C@H]2SC1 [CEFPODOXIME] | 1 µg/mL (≈ 2.34 µM) | 1 µg/mL (≈ 2.34 µM) | 0.5 µg/mL (≈ 1.17 µM) | 0.25 µg/mL (≈ 0.585 µM) | 0.03 µg/mL (≈ 0.0702 µM) | 0.06 µg/mL (≈ 0.14 µM) | 0.015 µg/mL (≈ 0.0351 µM)
